Active and inactive are the calls of the source. No cut-off for these calls is given here.
Tests used:
[1] = Metabolic stability in human liver microsomes at 1 uM after 10 mins in presence of NADPH; type: ADME, microsome; conditions: read-out: Stability
[2] = Metabolic stability in mouse liver microsomes at 1 uM after 10 mins in presence of NADPH; type: ADME, microsome; conditions: read-out: Stability
[3] = Metabolic stability in rat liver microsomes at 1 uM after 10 mins in presence of NADPH; type: ADME, microsome; conditions: read-out: Stability
[4] = Half life in Sprague-Dawley rat at 2 mg/kg, iv; type: ADME, organism-based; conditions: in vivo
[5] = Clearance in Sprague-Dawley rat at 2 mg/kg, iv; type: ADME, organism-based; conditions: in vivo
[6] = Volume of distribution at steady state in Sprague-Dawley rat at 2 mg/kg, iv; type: ADME, organism-based; conditions: in vivo, read-out: Vdss
[7] = Half life in Sprague-Dawley rat at 10 mg/kg, po; type: ADME, organism-based; conditions: in vivo
[8] = Cmax in Sprague-Dawley rat at 10 mg/kg, po; type: ADME, organism-based; design: dose 10 mg/kg, route oral; conditions: in vivo
[9] = Tmax in Sprague-Dawley rat at 10 mg/kg, po; type: ADME, organism-based; conditions: in vivo
[10] = AUC (0 to infinity) in Sprague-Dawley rat at 10 mg/kg, po; type: ADME, organism-based; design: dose 10 mg/kg, route oral, time infinity; conditions: in vivo
[11] = Oral bioavailability in Sprague-Dawley rat at 10 mg/kg; type: ADME, organism-based; conditions: in vivo
[12] = Half life in cynomolgus monkey at 2 mg/kg, iv; type: ADME, organism-based, Macaca fascicularis; conditions: in vivo
[13] = Clearance in cynomolgus monkey at 2 mg/kg, iv; type: ADME, organism-based, Macaca fascicularis; conditions: in vivo
[14] = Volume of distribution at steady state in cynomolgus monkey at 2 mg/kg, iv; type: ADME, organism-based, Macaca fascicularis; conditions: in vivo, read-out: Vdss
[15] = Half life in cynomolgus monkey at 10 mg/kg, po; type: ADME, organism-based, Macaca fascicularis; conditions: in vivo
[16] = Cmax in cynomolgus monkey at 10 mg/kg, po; type: ADME, organism-based, Macaca fascicularis; design: dose 10 mg/kg, route oral; conditions: in vivo
[17] = Tmax in cynomolgus monkey at 10 mg/kg, po; type: ADME, organism-based, Macaca fascicularis; conditions: in vivo
[18] = AUC (0 to infinity) in cynomolgus monkey at 10 mg/kg, po; type: ADME, organism-based, Macaca fascicularis; design: dose 10 mg/kg, time infinity, route oral; conditions: in vivo
[19] = Oral bioavailability in cynomolgus monkey at 10 mg/kg; type: ADME, organism-based, Macaca fascicularis; conditions: in vivo
[20] = Half life in human hepatocytes at 1 uM; type: ADME, cell-based, Hepatocyte
[21] = Half life in Sprague-Dawley rat hepatocytes at 1 uM; type: ADME, cell-based, Hepatocyte
[22] = Half life in dog hepatocytes at 1 uM; type: ADME, cell-based, Canis lupus familiaris, Hepatocyte
[23] = Half life in monkey hepatocytes at 1 uM; type: ADME, cell-based, Macaca mulatta, Hepatocyte; conditions: rhesus monkey
[24] = molecular target: T1, Sodium/glucose cotransporter 1 (Rattus norvegicus, UniProt P53790); test: Inhibition of rat SGLT1 expressed in CHOK1 cells assessed as reduction in Na-dependent [14C]-AMG uptake preincubated for 10 mins followed by [14C]-AMG addition measured after 2 hrs by TopCount method; type: cell-based
T1 sequence (P53790 whole entry): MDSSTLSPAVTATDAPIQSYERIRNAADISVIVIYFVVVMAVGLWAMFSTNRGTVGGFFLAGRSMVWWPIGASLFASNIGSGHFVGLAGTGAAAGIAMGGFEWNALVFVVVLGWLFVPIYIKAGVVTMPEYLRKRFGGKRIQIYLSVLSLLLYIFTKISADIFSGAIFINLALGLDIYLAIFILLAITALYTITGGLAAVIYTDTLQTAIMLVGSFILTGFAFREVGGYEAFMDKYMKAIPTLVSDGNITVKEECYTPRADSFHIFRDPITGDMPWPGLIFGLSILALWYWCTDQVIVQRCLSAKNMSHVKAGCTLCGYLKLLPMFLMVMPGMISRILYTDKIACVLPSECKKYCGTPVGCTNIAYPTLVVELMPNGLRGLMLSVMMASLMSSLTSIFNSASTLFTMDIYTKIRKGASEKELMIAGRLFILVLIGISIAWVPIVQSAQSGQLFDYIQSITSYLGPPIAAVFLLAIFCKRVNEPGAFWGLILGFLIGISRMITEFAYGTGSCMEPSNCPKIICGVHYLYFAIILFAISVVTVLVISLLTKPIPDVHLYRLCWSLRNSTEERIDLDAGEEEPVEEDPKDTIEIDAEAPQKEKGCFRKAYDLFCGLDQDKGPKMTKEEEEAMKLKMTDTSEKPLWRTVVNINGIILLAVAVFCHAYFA

[25] = molecular target: T2, Sodium/glucose cotransporter 2 (Rattus norvegicus, UniProt P53792); test: Inhibition of rat SGLT2 expressed in CHOK1 cells assessed as reduction in Na-dependent [14C]-AMG uptake preincubated for 10 mins followed by [14C]-AMG addition measured after 2 hrs by TopCount method; type: cell-based
T2 sequence (P53792 whole entry): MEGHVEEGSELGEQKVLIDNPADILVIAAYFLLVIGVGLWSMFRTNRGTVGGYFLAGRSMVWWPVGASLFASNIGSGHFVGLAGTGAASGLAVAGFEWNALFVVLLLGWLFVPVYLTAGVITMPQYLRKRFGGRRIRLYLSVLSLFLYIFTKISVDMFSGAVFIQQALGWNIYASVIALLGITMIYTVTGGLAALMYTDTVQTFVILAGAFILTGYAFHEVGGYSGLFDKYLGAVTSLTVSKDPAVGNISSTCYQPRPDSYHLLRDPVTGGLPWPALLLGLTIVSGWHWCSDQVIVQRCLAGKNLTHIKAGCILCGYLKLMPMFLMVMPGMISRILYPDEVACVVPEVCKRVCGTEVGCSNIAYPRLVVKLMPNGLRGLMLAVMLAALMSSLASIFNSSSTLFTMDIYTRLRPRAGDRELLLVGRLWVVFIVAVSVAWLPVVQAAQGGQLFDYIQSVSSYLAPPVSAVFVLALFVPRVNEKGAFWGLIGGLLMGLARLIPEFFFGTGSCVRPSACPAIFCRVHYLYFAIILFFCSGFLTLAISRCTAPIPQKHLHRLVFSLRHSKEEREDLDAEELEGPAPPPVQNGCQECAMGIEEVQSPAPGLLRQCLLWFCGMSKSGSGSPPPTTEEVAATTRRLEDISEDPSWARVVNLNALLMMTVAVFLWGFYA

Rattus norvegicus [26] = test: Antidiabetic activity in Sprague-Dawley rat assessed as decrease in postprandial blood glucose level administered orally 1 hr prior to glucose challenge measured up to 120 mins by OGTT; type: functional, organism-based
Rattus norvegicus [27] = test: Antidiabetic activity in Sprague-Dawley rat assessed as decrease in postprandial blood glucose AUC at 1 mg/kg, po administered 1 hr prior to glucose challenge measured up to 120 mins by OGTT relative to control; type: functional; design: scale not given: the % may be the effect or the level left
Mus musculus [28] = test: Anti-hyperglycemic effect in db/db mouse assessed as decrease in fed blood glucose AUC at 10 mg/kg, po measured up to 24 hrs relative to control; type: functional; design: scale not given: the % may be the effect or the level left
Mus musculus [29] = test: In vivo inhibition of SGLT2 in db/db mouse assessed as increase in urine glucose excretion at 10 mg/kg, po after 24 hrs; type: functional, organism-based
Rattus norvegicus [30] = test: Anti-hyperglycemic effect in ZDF rat assessed as decrease in fed blood glucose AUC at 10 mg/kg, po measured up to 24 hrs relative to control; type: functional; design: scale not given: the % may be the effect or the level left
[31] = molecular target: Voltage-gated inwardly rectifying potassium channel KCNH2 (Homo sapiens, UniProt Q12809); test: Inhibition of human ERG at 50 uM
Salmonella typhimurium = test: Genotoxicity in Salmonella typhimurium TA98; type: toxicity, organism-based; conditions: salmonella enterica subsp. enterica serovar typhimurium

Voltage-gated inwardly rectifying potassium channel KCNH2, sequence (Q12809 whole entry): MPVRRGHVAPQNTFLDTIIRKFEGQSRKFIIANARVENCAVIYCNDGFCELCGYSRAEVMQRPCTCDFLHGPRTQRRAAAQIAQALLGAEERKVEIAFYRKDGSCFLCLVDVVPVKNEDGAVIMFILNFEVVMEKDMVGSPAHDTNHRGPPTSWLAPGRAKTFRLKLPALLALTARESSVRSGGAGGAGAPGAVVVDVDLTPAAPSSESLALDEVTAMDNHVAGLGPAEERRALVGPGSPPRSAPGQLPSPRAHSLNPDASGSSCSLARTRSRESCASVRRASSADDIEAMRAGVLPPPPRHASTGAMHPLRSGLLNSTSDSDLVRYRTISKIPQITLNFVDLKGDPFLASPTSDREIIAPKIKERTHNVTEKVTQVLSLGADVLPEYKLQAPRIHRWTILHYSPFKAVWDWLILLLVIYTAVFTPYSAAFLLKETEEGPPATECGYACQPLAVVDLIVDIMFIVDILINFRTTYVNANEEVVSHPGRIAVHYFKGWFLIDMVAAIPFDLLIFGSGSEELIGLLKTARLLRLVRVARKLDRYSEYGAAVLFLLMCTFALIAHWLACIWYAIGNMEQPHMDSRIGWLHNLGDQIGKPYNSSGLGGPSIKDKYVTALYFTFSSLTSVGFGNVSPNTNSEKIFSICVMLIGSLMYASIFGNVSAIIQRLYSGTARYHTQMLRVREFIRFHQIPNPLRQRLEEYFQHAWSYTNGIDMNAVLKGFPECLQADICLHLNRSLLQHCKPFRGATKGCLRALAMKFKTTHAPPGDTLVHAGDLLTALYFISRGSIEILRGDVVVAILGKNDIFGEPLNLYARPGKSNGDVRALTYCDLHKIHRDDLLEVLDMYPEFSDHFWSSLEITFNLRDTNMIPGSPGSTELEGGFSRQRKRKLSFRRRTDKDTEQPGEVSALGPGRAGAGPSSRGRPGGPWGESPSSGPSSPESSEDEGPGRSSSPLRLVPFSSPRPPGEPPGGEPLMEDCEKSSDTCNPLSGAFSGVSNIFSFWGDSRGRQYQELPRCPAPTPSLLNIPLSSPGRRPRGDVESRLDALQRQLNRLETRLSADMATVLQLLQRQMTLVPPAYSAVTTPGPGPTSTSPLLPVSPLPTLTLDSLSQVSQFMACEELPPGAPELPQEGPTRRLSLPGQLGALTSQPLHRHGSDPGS

In the case of `COc1c([C@@H]2O[C@H](CO)[C@@H](F)[C@H](O)[C@H]2O)cc(Cc2ccc3c(c2)OCCO3)c2c1CCO2`, the remaining at 10 min, 1 µM [1] is reported as 95%, the remaining at 10 min, 1 µM [2] is reported as 82% and the remaining at 10 min, 1 µM [3] is reported as 66%. The half-life [4] was 0.41 h, the clearance [5] was 50.9 mL/min/kg and the Vd [6] was 1.07 L/kg. The half-life [7] was 1.44 h, the Cmax [8] was 990 ng/mL and the Tmax [9] was 0.3 h. It also gave an AUC(0-inf) [10] of 1600 ng·h/mL, a bioavailability [11] of 48.2% and a half-life [12] of 7.9 h. It also gave a clearance [13] of 15.5 mL/min/kg, a Vd [14] of 3.05 L/kg and a half-life [15] of 5.6 h. It also gave a Cmax [16] of 1490 ng/mL, a Tmax [17] of 1.33 h and an AUC(0-inf) [18] of 6090 ng·h/mL. It also gave a bioavailability [19] of 56%, a half-life at 1 µM [20] of 5.4 h and a half-life at 1 µM [21] of 1.2 h. For the same compound, the half-life at 1 µM [22] was 8 h, the half-life at 1 µM [23] was 2.2 h and the IC50 [24] was 0.068 µM. For the same compound, the IC50 [25] was 0.016 µM, the Activity (Rattus norvegicus [26]) was “Dose-dependent effect” and the Activity (Rattus norvegicus [27]) was 32.4%. The Activity (Mus musculus [28]) was 57.4%, the inhibition (Mus musculus [29]) was “Active” and the Activity (Rattus norvegicus [30]) was 56.8%. For the same compound, the “inhibition (INH)” value [31] was “Not Active” and the Activity (Salmonella typhimurium) was “Non-Toxic”.
